# Reference: publication PMC4172929, “Patched Targeting Peptides for Imaging and Treatment of Hedgehog Positive Breast Tumors” (BioMed Research International, 2014)
# Test system: 13762 breast carcinoma xenografts
# Experiment: Paclitaxel treatment of tumor xenografts (PTCH immunohistochemistry, tumor volume)
# Type: in vivo, rat
# Conditions: rats, 20 mg/kg paclitaxel
# Procedure: All animal work was carried out in the Small Animal Imaging Facility (SAIF) at the University of Texas M.D. Anderson Cancer Center under an approved Institutional Animal Care and Use Committee (IACUC) protocol. Female Fischer 344 rats (150 ± 25 g, n = 6) (Harlan Sprague-Dawley, Indianapolis, IN) were inoculated subcutaneously with 0.1 mL of a 13762 breast carcinoma cell suspension (10^5 cells/rat of a breast tumor cell line specific to Fischer rats) into the hind legs using 25-gauge needles. Studies were performed 12–14 days after inoculation when tumors reached approximately 1 cm in diameter. For treatment studies, rats were injected with 20 mg/kg paclitaxel and reimaged 7 days later. After the posttreatment scan, tumors were removed and formalin sections were made. Control tumors were taken from untreated […] 13 days after inoculation. Sections were stained with an anti-patched antibody (Santa Cruz) using a peroxide-based immunohistochemical detection kit (Dako) according to the manufacturer's instructions.
compound,measurement,setting,value
CC(=O)O[C@H]1C(=O)[C@@]2(C)[C@H]([C@H](OC(=O)c3ccccc3)[C@]3(O)C[C@H](OC(=O)[C@H](O)[C@@H](NC(=O)c4ccccc4)c4ccccc4)C(C)=C1C3(C)C)[C@]1(OC(C)=O)CO[C@@H]1C[C@@H]2O [paclitaxel],tumor volume after treatment,,decrease
same,PTCH protein expression in the residual tumor,"seven days after treatment, immunohistochemistry",increase
